We go through 10 compounds from PMC7038234, “Screening of Natural Extracts for Inhibitors against Japanese Encephalitis Virus Infection” (Antimicrobial Agents and Chemotherapy, 2020).

The subject of data set [1] is JEV. Conditions: cited from earlier work.
Data set [2] in a line: Cytotoxicity / cell viability on Vero cells. The note with it: African green monkey.
Data set [3] relates to JEV strains AT31 and SA14. Briefly: Plaque assay of virus production in culture supernatants (Vero, Huh-7, U251 cells). The data set is classed as cell-based, Japanese encephalitis virus.
Data set [4] concerns JEV strain SA14. Briefly: qRT-PCR of JEV RNA levels in Vero cell lysates. The class given is cell-based, Japanese encephalitis virus. The note with it: Vero cells, high-, middle- and low-dose-treated groups.
Data set [5] relates to JEV. The class given is cell-based, Japanese encephalitis virus.
In a further data set the test system is JEV AT31. Briefly: Addition of sodium and potassium assay (plaque assay). Conditions: Vero cells, AT31, NaCl 0-100 mM, KCl 0-25 mM.
In another data set the test system is JEV SA14 replicon. Briefly: JEV reporter replicon assay (Renilla luciferase) in Huh-7 cells. The note with it: for JEV RNA synthesis (replicon luciferase signal): 24 h postelectroporation.
The test system of data set [6] is JEV strain SA14. Briefly: Immunofluorescence staining assay (IFA), SA14 infection of Vero cells.
The next data set deals with JEV (AT31). Briefly: Antiviral efficacy in JEV-infected BALB/c mice. The class given is in vivo, BALB/c mouse. How it is done: Adult male BALB/c mice (4 weeks) were randomly divided into three groups: the JEV-infected and vehicle (0.75% DMSO in normal saline)-treated group, the JEV-infected and ouabain-treated group, and the ouabain-treated group. For infection, mice were infected intraperitoneally (i.p.) with a dose of 1 × 10^6 PFU JEV (AT31). The infected mice were i.p. administered with ouabain at 3 mg/kg of body weight or a vehicle control every day for 21 consecutive days. Mice were sacrificed at day 1, 3, 7, 10, or 21, depending on the experimental design. Blood, spleen, and brain samples were collected for plaque assay, qRT-PCR, and histopathology investigation (Vectra ss; PerkinElmer).
The viral burden was determined by plaque assay. The samples were weighed and homogenized in 300 μl of PBS. The homogenates were clarified by centrifugation (2,000 × g at 4°C) for 15 min and then diluted serially prior to infection of BHK-21 cells. The viral titer was adjusted for sample volume and tissue weight to calculate the titer as PFU/g.
Tissue samples and blood from JEV-infected mice were extracted with the RNAprep pure tissue kit (Tiangen; catalog no. DP431) and RNAprep pure blood kit (Tiangen; catalog no. DP433), respectively. JEV RNA levels were determined by one-step qRT-PCR on ABI Real-Time PCR systems using standard cycling conditions. The viral burden was calculated on a standard curve produced using serial 10-fold dilutions of plasmids carrying the infectious clone.
For histopathology investigation, brain tissues were collected from the mice and fixed in 4% paraformaldehyde; the hematoxylin-eosin staining protocol was followed for tissue staining.

The mark [7] stands for this setting: JEV-infected BALB/c mice, ouabain 3 mg/kg i.p. daily, 21 days.

Structures are written as SMILES. Like-named read-outs stand apart in the source and are kept apart here. Bounds are passed on as bounds.

Regarding `CCCCCCN(CCCCCC)C(=O)Cc1c(-c2ccc(F)cc2)[nH]c2ccccc12` [FGIN-1-27], the JEV infection entry in the data set on JEV [1] was “reduced the JEV infection in vitro”.

In turn, `COC1=CC23CCCN2CCc2cc4c(cc2C3C1O)OCO4` (centres unmarked) [cephalotaxlen] yielded a cytotoxic concentration (CC50) in data set [2] above 100 µM.

As for `C[C@H]1O[C@@H](O[C@H]2[C@@H](O)C[C@H](O[C@H]3[C@@H](O)C[C@H](O[C@H]4CC[C@@]5(C)[C@H](CC[C@@H]6[C@@H]5C[C@@H](O)[C@]5(C)[C@@H](C7=CC(=O)OC7)CC[C@]65O)C4)O[C@@H]3C)O[C@@H]2C)C[C@H](O)[C@@H]1O` [digoxin], in [3] (Vero cells, plaque assay, highest concentration), the “reduction of AT31 and SA14 virus production” value lay in the range of 4 to 6 log units. Also, the “attenuated RNA levels of the SA14 strain” value with JEV strain SA14 [4] is on record as “above 40%”. Besides, the “adaptive (drug-resistant) mutant” value in the data set with JEV [5] is reported as “no adaptive mutant was found”. In data set [2], this compound registered a CC50 above 100 µM. The “dependence of JEV-inhibiting effect on extracellular NaCl and KCl” value with JEV AT31 is “positively correlated with extracellular NaCl but inversely correlated with KCl”. Also, in the data set on JEV SA14 replicon, the “initial translation of replicon RNA” value is “neither drug inhibited” and the “JEV RNA synthesis (replicon luciferase signal)” value was “inhibited JEV RNA synthesis in a dose-dependent manner”. Also, in the data set with JEV strain SA14 [6] (digoxin 392 nM), the SA14 reproduction result is reported as “greatly inhibited”.

The compound `Cc1cc(O)c2c(c1)C(=O)c1cc(O)cc(O)c1C2=O` [emodin] had a CC50 in [2] above 100 µM.

Regarding `O[C@H]1[C@H]2c3cc4c(cc3CN3CCC(=C[C@@H]1O)[C@H]23)OCO4` [lycorine], the CC50 in data set [2] is above 100 µM.

On to `COC(=O)C1=C(C)NC(C)=C(C(=O)OCCN2CCN(C(c3ccccc3)c3ccccc3)CC2)C1c1cccc([N+](=O)[O-])c1` (centres unmarked) [manidipine], for which the JEV infection result with JEV [1] is “inhibited JEV infection in vitro and in vivo”.

Turning to `C[C@@H]1O[C@@H](O[C@H]2C[C@@H](O)[C@]3(CO)[C@H]4[C@H](O)C[C@]5(C)[C@@H](C6=CC(=O)OC6)CC[C@]5(O)[C@@H]4CC[C@]3(O)C2)[C@H](O)[C@H](O)[C@H]1O` [ouabain], the “reduction of AT31 and SA14 virus production” value in data set [3] fell in the range of 4 to 6 log units. Also, the “attenuated RNA levels of the SA14 strain” value with JEV strain SA14 [4] was “above 40%”. In the data set on JEV (AT31) (setting [7]), the animals survived is listed as 8 out of 14 and the survival rate is listed as around 60%. Moreover, in the data set on JEV (AT31) (day 7 postinfection, meningitis, perivascular cuffing, vacuolar degeneration), the “histopathological changes in brain” value was “remarkably alleviated”. For the same compound, in the data set on JEV (AT31) (day 21 postinfection, plaque assay), the “plaques from brain on day 21 postinfection” value is reported as “no plaques formed”. The “viral load in brain (plaque assay)” value in the data set on JEV (AT31) (days 7, 10 and 21 postinfection, versus untreated infected mice) is on record as “significantly reduced viral load”. Also, in the data set on JEV (AT31) (qRT-PCR, days 1 and 3 postinfection), the “effect on viral titers in the brain at the preclinical stage” value is “little effect”. For the same compound, the “effect on decreasing viral titers in the blood and spleen” value with JEV (AT31) (qRT-PCR, earlier time points (days 1 and 3)) is on record as “little effect”. The “behavior of mice treated with ouabain alone” value in the data set with JEV (AT31) (uninfected BALB/c mice, ouabain 3 mg/kg i.p. daily) is “little abnormal behavior”. For the same compound, the “adaptive (drug-resistant) mutant” value with JEV [5] was “no adaptive mutant was found”. In addition, in data set [2], the CC50 is above 100 µM. Besides, the “dependence of JEV-inhibiting effect on extracellular NaCl and KCl” value with JEV AT31 was “positively correlated with extracellular NaCl but inversely correlated with KCl”. In the data set on JEV SA14 replicon, the “initial translation of replicon RNA” value is “neither drug inhibited” and the “JEV RNA synthesis (replicon luciferase signal)” value is “inhibited JEV RNA synthesis in a dose-dependent manner”. Besides, the SA14 reproduction result in the data set on JEV strain SA14 [6] (ouabain 98 nM) is reported as “greatly inhibited”.

`Oc1cc(O)c2c(c1)OC(c1ccc(O)c(O)c1)C(OC1(c3ccc(O)c(O)c3)Oc3cc(O)cc(O)c3C(O)C1O)C2` (centres unmarked) [procyanidin] gave a CC50 in data set [2] above 100 µM.

For the compound `COc1cc2c(c(OC)c1OC)-c1c(cc(OC)c(OC)c1OC)C[C@H](C)[C@H](C)C2` [schizandrin A], in data set [2], the CC50 came to 100 µM.

In [2], `COc1cc2c(c(OC)c1OC)-c1c(cc3c(c1OC)OCO3)CC(C)C(C)C2` (centres unmarked) [schizandrin B] gave a CC50 above 100 µM.
